Data set [1] concerns phosphorylation of ERK and STAT3. As to the kind of experiment: Western blotting of ERK and STAT3 phosphorylation in hypoxic KHYG-1 cells. Type of data set: cell-based. As to conditions: hypoxic KHYG-1 cells pre-treated with 5 μM for 2 h. A general note: A western blot detects proteins with antibodies after separation by electrophoresis.
Protocol: Hypoxic KYHG-1 cells were pre-treated with 5 μM TPI-1 for 2 h, and then the cells were collected for western blotting analysis.
For western blotting, treated and untreated KHYG-1 and NK92 cells were lysed in buffer containing 50 mM Tris, 150 mM NaCl, 1% Triton X-100, 1% sodium deoxycholate, 0.1% SDS and protease inhibitors on ice for 30 min. Lysates were centrifuged at 12,000 rpm for 15 min, and supernatants were collected. Protein concentration was determined by the BCA protein assay kit (HEART Biotech, #WB003). Equal amounts of protein were loaded and separated on sodium dodecyl sulfate-polyacrylamide gel electrophoresis gel, and transferred onto a PVDF membrane (Millipore, #IPVH00010). After blocking for 1 h with 5% non-fat milk in PBS with 0.1% Tween-20 at room temperature, the membrane was incubated with primary antibody at 4° C. overnight. Immunoblots were visualized using HRP-conjugated secondary antibodies and the ECL Western Blot Detection kit (Phygene Life Sciences, #PH0353).
Data set [2] has as its system NK-92 cells. The data set is described as follows: Flow cytometry of activating receptors on NK cell surface, NK-92. Type of data set: cell-based. Particulars: 10 μM inhibitor for 24 h. As to the method: (§1) Hypoxia diminishes the phosphorylation level of ERK and STAT3.
(§2) The expression of NK cell cytotoxicity effector molecules and activating receptors was analyzed by flow cytometry. For membrane staining, 5×10^5 cells were collected and washed with staining buffer (PBS containing 0.1% NaN3 and 0.1% BSA) three times. The cells were then incubated for 30 min on ice, according to the instructions provided with the respective antibodies. After washing 3 times with cell stain buffer, the cells were resuspended in 300 μL staining buffer in the presence of Sytox Green or 7-AAD, which were used to gate out dead cells. Acquisition of 10,000 cells per reaction was performed using a CytoFLEX Cytometer (Beckman Coulter Life Sciences). Data were analyzed with Flowjo v7.6.2 (Tree Star). For intracellular staining, 5×10^5 cells were collected and fixed with 1 mL 1% paraformaldehyde in PBS for 15 minutes at room temperature. After washing 3 times with cell stain buffer, the fixed cells were then resuspended in 2 mL permeabilization buffer (0.1% saponin in cell staining buffer) and incubated for 30 min at room temperature. The cells were collected again by centrifugation, stained with the antibody at an optimal working concentration in permeabilization buffer for 15 min on ice. […]

Data set [3] relates to KHYG-1 cells. The data set is described as follows: Flow cytometry of activating receptors on NK cell surface, KHYG-1. As to conditions: 10 μM inhibitor for 24 h. Type of data set: cell-based. As to the method: as §1, §2
Data set [4] concerns K562 cells. As to conditions: KHYG-1 pretreated with 10 μM for 6 h, then K562 at different E:T ratios for 4 h.
Protocol: Statistical analysis showing the effects of ERK and STAT3 inhibition on NK cells cytotoxicity against K562 cells (n=3, * P<0.05, ** P<0.01). KHYG-1 cells were pretreated with 10 μM U0126 and 10 μM CPT for 6 h and then incubated with K562 at different E:T ratios for 4 h.
(e) Flow cytometric analysis of the effects of TPI-1 on the NK cell cytotoxicity. Left panel: representative flow cytometry results of TPI-1 on the cytotoxicity of KHYG-1 cells. KHYG-1 cells were pretreated with 5 μM TPI-1 for 2 h, and then incubated with K562 cells at different E:T ratios for 4 h. Right panel: statistical analysis of the effects of TPI-1 on KHYG-1 cell cytotoxicity against K562 cells (n=3, * P<0.05).
(b) Statistical analysis of the effects of knocking down SHP-1 on NK cells cytotoxicity against K562 cells (n=3, * P<0.05). […]
Prior to the assay, NK cells and tumour cells were individually pre-incubated for 24 h at 5% CO2 with 20% or 1% 02 first. […] After the 4 h incubation, samples were harvested and washed followed by a combinational staining with CD2-APC, Annexin V-FITC as well as Sytox Green, in which CD2 was used to distinguish effector from target cells, and target cell death was detected with Annexin V-FITC and Sytox Green. A minimum of 10,000 target events were collected per sample, and the results were analyzed using Flowjo v7.6.2.
The target of data set [5] is DR4 (Homo sapiens, UniProt O00220). As to conditions: surface plasmon resonance; WO 2009/077857; cited from earlier work.
Data set [6] concerns the target T1, decoy receptor DcR1 (Homo sapiens, UniProt O14798).
T1 sequence (O14798 26-236): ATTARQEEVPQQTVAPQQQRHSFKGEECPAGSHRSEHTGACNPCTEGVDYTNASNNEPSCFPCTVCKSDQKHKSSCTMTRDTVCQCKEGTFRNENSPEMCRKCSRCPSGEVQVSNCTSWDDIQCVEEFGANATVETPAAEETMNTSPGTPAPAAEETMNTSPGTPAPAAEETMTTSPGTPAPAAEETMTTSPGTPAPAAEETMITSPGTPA
Particulars: surface plasmon resonance; WO 2009/077857; cited from earlier work. (In SPR one partner is held on a chip, and binding of the other changes the refractive index at the surface.)

The target in data set [7] is DR5 (Homo sapiens, UniProt O14763). As to conditions: compared with wildtype TRAIL; cited from earlier work.
Data set [8] deals with T2, DcR2 (Homo sapiens, UniProt Q9UBN6).
T2 sequence (Q9UBN6 56-386): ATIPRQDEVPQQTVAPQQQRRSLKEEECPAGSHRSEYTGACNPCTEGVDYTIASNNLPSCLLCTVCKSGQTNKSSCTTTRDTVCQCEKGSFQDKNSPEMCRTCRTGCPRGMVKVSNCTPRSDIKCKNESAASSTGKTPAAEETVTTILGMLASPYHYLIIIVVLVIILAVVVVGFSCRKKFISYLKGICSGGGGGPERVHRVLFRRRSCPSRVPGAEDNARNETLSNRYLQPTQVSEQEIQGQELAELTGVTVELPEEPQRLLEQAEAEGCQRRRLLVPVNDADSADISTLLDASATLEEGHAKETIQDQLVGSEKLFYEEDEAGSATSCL
As to conditions: compared with wildtype TRAIL; cited from earlier work.

Data set [9] deals with T3, DcR1 (Homo sapiens, UniProt O14798).
T3 sequence (O14798 26-236): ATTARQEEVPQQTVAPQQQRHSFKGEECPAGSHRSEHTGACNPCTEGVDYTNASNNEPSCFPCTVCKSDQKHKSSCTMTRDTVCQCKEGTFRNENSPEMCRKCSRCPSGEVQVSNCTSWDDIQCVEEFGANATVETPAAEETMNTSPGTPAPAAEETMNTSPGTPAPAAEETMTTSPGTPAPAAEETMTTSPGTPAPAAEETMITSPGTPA
As to conditions: compared with wildtype TRAIL; cited from earlier work.

`O=C1C=CC(=O)C(c2cc(Cl)ccc2Cl)=C1` [TPI-1]: in [1], the “phosphorylation of ERK and STAT3” value is on record as “reverse the decrease”.
As to `N#CC(=C(/N)Sc1ccccc1N)/C(C#N)=C(\N)Sc1ccccc1N` [U0126], the “expression of activating receptors NKp46 and NKG2D” value in data set [2] is given as “significantly reduced”. Further, the “expression of activating receptors NKp30, NKp46 and NKG2D” value in [3] is “significantly reduced”. Further, in data set [4], the “NK cell cytotoxicity against cancer cells” value is “significantly impaired”.
On to `C[C@H]1COC2=C1C(=O)C(=O)c1c2ccc2c1CCCC2(C)C` [cryptotanshinone], for which the “NK cell cytotoxicity against cancer cells” value in data set [4] is “significantly impaired”.
Broadly, the Kd is the equilibrium constant for the complex coming apart. Take Wildtype TRAIL: wildtype TRAIL ligand: the Kd in data set [5] was greater than 2 nM; in [6], greater than 20 nM.

B1: TRAIL variant: encoded by the wildtype TRAIL gene containing the D269H/E195R mutation, described in WO 2009/077857 (protein)
chain: MAMMEVQGGPSLGQTCVLIVIFTVLLQSLCVAVTYVYFTNELKQMQDKYSKSGIACFLKEDDSYWDPNDEESMNSPCWQVKWQLRQLVRKMILRTSEETISTVQEKQQNISPLVRERGPQRVAAHITGTRGRSNTLSSPNSKNEKALGRKINSWESSRSGHSFLSNLHLRNGELVIHEKGFYYIYSQTYFRFQERIKENTKNDKQMVQYIYKYTSYPDPILLMKSARNSCWSKDAEYGLYSIYQGGIFELKENDRIFVSVTNEHLIDMHHEASFFGAFLVG
Take B1: in data set [7], the “affinity for DR5” value is recorded as “significantly increases”. The “affinity for decoy receptor DcR2” value in data set [8] is given as “reducing”. Further, in data set [9], the “affinity for decoy receptor DcR1” value is reported as “reducing”.

Source of the values: US20230210903A1, “HYPOXIA-RESISTANT NATURAL KILLER CELLS” (ONK THERAPEUTICS LIMITED, priority 2020, published 2023).
